Assay results: paper PMC7377239, “Cardiovascular Effects of Polychlorinated Biphenyls and Their Major Metabolites” (Environmental Health Perspectives, 2020)
Like-named read-outs stand apart in the source and are kept apart here.

System: iCell endothelial cells (human iPSC-derived ECs)
Assay: Tube formation (tubulogenesis) assay in iCell endothelial cells, 18 h
Assay type: cell-based
Details: Homo sapiens, Endothelial cell; for activity at 0.1 µM: 0.10 µM
Outline: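 Tube formation was measured by calcein AM imaging after overnight compound exposure (37°C, 0.5% DMSO vehicle) of human iPSC-derived ECs, 7,500/well, on reduced-growth-factor Geltrex in starvation medium. Vehicle-normalized data fitted to four-parameter logistic; POD set at one vehicle SD; without response, 100 μM taken as NOAEL.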

[1] = iPSC-EC tube formation, 18 hr, 0.00 µM control = 100.00, read-out: endo.mtl.18hr
[2] = iPSC-EC tube formation, 18 hr, 0.00 µM control = 100.00, read-out: endo.tlps.18hr
[3] = iPSC-EC tube formation, 18 hr, 0.00 µM control = 100.00, read-out: endo.tta.18hr
[4] = iPSC-EC tube formation, 18 hr, 0.00 µM control = 100.00, read-out: endo.ttl.18hr
[5] = iPSC-EC tube formation, 18 hr, top concentration 100.00 µM, read-out: endo.mtl.18hr POD
[6] = iPSC-EC tube formation, 18 hr, top concentration 100.00 µM, read-out: endo.tlps.18hr POD
[7] = iPSC-EC tube formation, 18 hr, top concentration 100.00 µM, read-out: endo.tta.18hr POD
[8] = iPSC-EC tube formation, 18 hr, top concentration 100.00 µM, read-out: endo.ttl.18hr POD
[9] = iPSC-EC, 0.00 µM = 100.00, read-out: endo.mtl.18hr
[10] = iPSC-EC, 0.00 µM = 100.00, read-out: endo.tlps.18hr
[11] = iPSC-EC, 0.00 µM = 100.00, read-out: endo.tta.18hr
[12] = iPSC-EC, 0.00 µM = 100.00, read-out: endo.ttl.18hr
[13] = iPSC-EC, 100.00 = highest concentration tested, read-out: endo.mtl.18hr POD
[14] = iPSC-EC, 100.00 = highest concentration tested, read-out: endo.tlps.18hr POD
[15] = iPSC-EC, 100.00 = highest concentration tested, read-out: endo.tta.18hr POD
[16] = iPSC-EC, 100.00 = highest concentration tested, read-out: endo.ttl.18hr POD

## Clc1ccc(-c2ccccc2)cc1 [PCB3]
[1]
  activity at 0.01 µM: 114%
  activity at 0.1 µM: 106%
  activity at 1 µM: 119%
  activity at 10 µM: 118%
  activity at 100 µM: 107%
[2]
  activity at 0.01 µM: 108%
  activity at 0.1 µM: 111%
  activity at 1 µM: 171%
  activity at 10 µM: 103%
  activity at 100 µM: 113%
[3]
  activity at 0.01 µM: 123%
  activity at 0.1 µM: 102%
  activity at 1 µM: 126%
  activity at 10 µM: 109%
  activity at 100 µM: 93.3%
[4]
  activity at 0.01 µM: 120%
  activity at 0.1 µM: 98.7%
  activity at 1 µM: 123%
  activity at 10 µM: 111%
  activity at 100 µM: 95.4%
[5]
  minimal effective concentration: 100 µM
[6]
  minimal effective concentration: 100 µM
[7]
  minimal effective concentration: 100 µM
[8]
  minimal effective concentration: 100 µM

## Clc1cccc(-c2cccc(Cl)c2)c1 [PCB11]
[1]
  activity at 0.01 µM: 98.5%
  activity at 0.1 µM: 102%
  activity at 1 µM: 105%
  activity at 10 µM: 91.6%
  activity at 100 µM: 105%
[2]
  activity at 0.01 µM: 118%
  activity at 0.1 µM: 117%
  activity at 1 µM: 125%
  activity at 10 µM: 140%
  activity at 100 µM: 114%
[3]
  activity at 0.01 µM: 148%
  activity at 0.1 µM: 118%
  activity at 1 µM: 132%
  activity at 10 µM: 80.8%
  activity at 100 µM: 150%
[4]
  activity at 0.01 µM: 143%
  activity at 0.1 µM: 116%
  activity at 1 µM: 126%
  activity at 10 µM: 80.3%
  activity at 100 µM: 150%
[5]
  minimal effective concentration: 100 µM
[6]
  minimal effective concentration: 100 µM
[7]
  minimal effective concentration: 100 µM
[8]
  minimal effective concentration: 100 µM

## Clc1ccc(Cl)c(-c2cc(Cl)ccc2Cl)c1 [PCB52]
[1]
  activity at 0.01 µM: 109%
  activity at 0.1 µM: 111%
  activity at 1 µM: 107%
  activity at 10 µM: 110%
  activity at 100 µM: 79%
[2]
  activity at 0.01 µM: 89.1%
  activity at 0.1 µM: 140%
  activity at 1 µM: 132%
  activity at 10 µM: 108%
  activity at 100 µM: 83.4%
[3]
  activity at 0.01 µM: 152%
  activity at 0.1 µM: 108%
  activity at 1 µM: 125%
  activity at 10 µM: 119%
  activity at 100 µM: 89.5%
[4]
  activity at 0.01 µM: 156%
  activity at 0.1 µM: 116%
  activity at 1 µM: 133%
  activity at 10 µM: 120%
  activity at 100 µM: 95.5%
[5]
  minimal effective concentration: 79.8 µM
[6]
  minimal effective concentration: 100 µM
[7]
  minimal effective concentration: 100 µM
[8]
  minimal effective concentration: 100 µM

## Clc1ccc(Cl)c(-c2c(Cl)ccc(Cl)c2Cl)c1 [PCB95]
[9]
  activity at 0.01 µM: 111%
  activity at 0.1 µM: 103%
  activity at 1 µM: 108%
  activity at 10 µM: 109%
  activity at 100 µM: 47%
[10]
  activity at 0.01 µM: 84.5%
  activity at 0.1 µM: 85.8%
  activity at 1 µM: 115%
  activity at 10 µM: 119%
  activity at 100 µM: 16%
[11]
  activity at 0.01 µM: 111%
  activity at 0.1 µM: 99%
  activity at 1 µM: 97.2%
  activity at 10 µM: 113%
  activity at 100 µM: 8.76%
[12]
  activity at 0.01 µM: 116%
  activity at 0.1 µM: 106%
  activity at 1 µM: 104%
  activity at 10 µM: 123%
  activity at 100 µM: 11%
[13]
  minimal effective concentration: 48.6 µM
[14]
  minimal effective concentration: 53.9 µM
[15]
  minimal effective concentration: 48.7 µM
[16]
  minimal effective concentration: 55.7 µM

## Clc1ccc(-c2cc(Cl)c(Cl)c(Cl)c2)cc1Cl [PCB126]
[9]
  activity at 0.01 µM: 99.5%
  activity at 0.1 µM: 125%
  activity at 1 µM: 104%
  activity at 10 µM: 93.8%
  activity at 100 µM: 74.1%
[10]
  activity at 0.01 µM: 175%
  activity at 0.1 µM: 110%
  activity at 1 µM: 99.1%
  activity at 10 µM: 52.4%
  activity at 100 µM: 40.1%
[11]
  activity at 0.01 µM: 91%
  activity at 0.1 µM: 130%
  activity at 1 µM: 126%
  activity at 10 µM: 91.2%
  activity at 100 µM: 41.4%
[12]
  activity at 0.01 µM: 90.1%
  activity at 0.1 µM: 136%
  activity at 1 µM: 125%
  activity at 10 µM: 100%
  activity at 100 µM: 39.6%
[13]
  minimal effective concentration: 28.1 µM
[14]
  minimal effective concentration: 4.68 µM
[15]
  minimal effective concentration: 25.7 µM
[16]
  minimal effective concentration: 38.9 µM

## Clc1cc(Cl)c(-c2cc(Cl)c(Cl)cc2Cl)cc1Cl [PCB153]
[9]
  activity at 0.01 µM: 121%
  activity at 0.1 µM: 119%
  activity at 1 µM: 122%
  activity at 10 µM: 135%
  activity at 100 µM: 55.1%
[10]
  activity at 0.01 µM: 80.7%
  activity at 0.1 µM: 104%
  activity at 1 µM: 111%
  activity at 10 µM: 202%
  activity at 100 µM: 21.1%
[11]
  activity at 0.01 µM: 103%
  activity at 0.1 µM: 124%
  activity at 1 µM: 111%
  activity at 10 µM: 148%
  activity at 100 µM: 20.2%
[12]
  activity at 0.01 µM: 116%
  activity at 0.1 µM: 134%
  activity at 1 µM: 123%
  activity at 10 µM: 157%
  activity at 100 µM: 22.9%
[13]
  minimal effective concentration: 0.007 µM
[14]
  minimal effective concentration: 1.93 µM
[15]
  minimal effective concentration: 3.83 µM
[16]
  minimal effective concentration: 0.58 µM
